Measured values taken from article PMC7337938 (2020).

Experiments:
[1] = system: Zsw77 (RNA, riboswitch) GGAUACAGGACUGGCGGAUUAGUGGAAGCAACCACGUGGACUGUAUCCGAAGAAAAGCCGACCGCCUGGGCAAAAA; assay: ITC; conditions: K+ 50 mM KCl + 25 mM potassium phosphate; Mg2+ 10 mM MgCl2 (assumed from NMR prep); pH 6.2; 60 μM RNA; stoichiometry free, binding-competent fraction 53%
[2] = system: Zsw81 (RNA, riboswitch) GGAUACAGGACUGGCGGAUUAGUGGAAGCAACCACGUGGACUGUAUCCGAAGAAAAGCCGACCGCCUGGGCAAAAAUUAG; assay: ITC; conditions: K+ 50 mM KCl + 25 mM potassium phosphate; Mg2+ 10 mM MgCl2 (assumed from NMR prep); pH 6.2; 60 μM RNA; stoichiometry free, binding-competent fraction 13%
[3] = system: Zsw91 (RNA, riboswitch) GGAUACAGGACUGGCGGAUUAGUGGAAGCAACCACGUGGACUGUAUCCGAAGAAAAGCCGACCGCCUGGGCAAAAAUUAGCCCAGGCGGU; assay: ITC; conditions: K+ (50 mM KCl, 25 mM potassium phosphate); Mg2+ for ITC not stated; pH 6.2; 60 μM RNA, 600 μM ZMP in syringe
[4] = system: Zsw101 (RNA, riboswitch) GGAUACAGGACUGGCGGAUUAGUGGAAGCAACCACGUGGACUGUAUCCGAAGAAAAGCCGACCGCCUGGGCAAAAAUUAGCCCAGGCGGUAUUUAUUUUU; assay: 1H NMR; conditions: 50 mM KCl, 25 mM potassium phosphate, Mg2+; pH 6.2
[5] = system: Zsw48+Zsw15 (RNA, riboswitch) GGAUACAGGACUGGCGGAUUAGUGGAAGCAACCACGUGGACUGUAUCCG/GCCGACCGCCUGGGC; assay: 1H NMR; conditions: 50 mM KCl, 25 mM potassium phosphate, 10 mM Mg2+; pH 6.2; 100 μM RNA, 2 eq. ZMP; affinity lower than Zsw77
[6] = system: Zsw83 (RNA, riboswitch) GGAUACAGGACUGGCGGAUUAGUGGAAGCAACCACGUGGACUGUAUCCGAAGAAAAGCCGACCGCCUGGGCAAAAAUUAGCC; assay: 1H NMR titration; conditions: 50 mM KCl, 25 mM potassium phosphate, 10 mM Mg2+; pH 6.2; 120 μM RNA; up to 2 eq. ZMP
[7] = system: Zsw84 (RNA, riboswitch) GGAUACAGGACUGGCGGAUUAGUGGAAGCAACCACGUGGACUGUAUCCGAAGAAAAGCCGACCGCCUGGGCAAAAAUUAGCCC; assay: 1H NMR titration; conditions: 50 mM KCl, 25 mM potassium phosphate, 10 mM Mg2+; pH 6.2; up to 2 eq. ZMP
[8] = system: Zsw85 (RNA, riboswitch) GGAUACAGGACUGGCGGAUUAGUGGAAGCAACCACGUGGACUGUAUCCGAAGAAAAGCCGACCGCCUGGGCAAAAAUUAGCCCA; assay: 1H NMR titration; conditions: 50 mM KCl, 25 mM potassium phosphate, 10 mM Mg2+; pH 6.2; up to 2 eq. ZMP
[9] = system: Zsw86 (RNA, riboswitch) GGAUACAGGACUGGCGGAUUAGUGGAAGCAACCACGUGGACUGUAUCCGAAGAAAAGCCGACCGCCUGGGCAAAAAUUAGCCCAG; assay: 1H NMR titration; conditions: 50 mM KCl, 25 mM potassium phosphate, 10 mM Mg2+; pH 6.2; up to 2 eq. ZMP
[10] = system: Zsw87 (RNA, riboswitch) GGAUACAGGACUGGCGGAUUAGUGGAAGCAACCACGUGGACUGUAUCCGAAGAAAAGCCGACCGCCUGGGCAAAAAUUAGCCCAGG; assay: 1H NMR titration; conditions: 50 mM KCl, 25 mM potassium phosphate, 10 mM Mg2+; pH 6.2; up to 2 eq. ZMP
[11] = system: Zsw89 (RNA, riboswitch) GGAUACAGGACUGGCGGAUUAGUGGAAGCAACCACGUGGACUGUAUCCGAAGAAAAGCCGACCGCCUGGGCAAAAAUUAGCCCAGGCG; assay: 1H NMR titration; conditions: 50 mM KCl, 25 mM potassium phosphate, 10 mM Mg2+; pH 6.2; up to 2 eq. ZMP
[12] = system: Zsw90 (RNA, riboswitch) GGAUACAGGACUGGCGGAUUAGUGGAAGCAACCACGUGGACUGUAUCCGAAGAAAAGCCGACCGCCUGGGCAAAAAUUAGCCCAGGCGG; assay: 1H NMR titration; conditions: 50 mM KCl, 25 mM potassium phosphate, 10 mM Mg2+; pH 6.2; up to 2 eq. ZMP
[13] = system: Zsw82 (RNA, riboswitch) GGAUACAGGACUGGCGGAUUAGUGGAAGCAACCACGUGGACUGUAUCCGAAGAAAAGCCGACCGCCUGGGCAAAAAUUAGC; assay: ITC and 1H NMR titration; conditions: 50 mM KCl, 25 mM potassium phosphate, 10 mM Mg2+ (NMR); pH 6.2; minor binding-competent population prevented curve fitting
[14] = system: Zsw77 (RNA, riboswitch) GGAUACAGGACUGGCGGAUUAGUGGAAGCAACCACGUGGACUGUAUCCGAAGAAAAGCCGACCGCCUGGGCAAAAA; assay: 1H NMR titration, U42 imino intensity; conditions: 50 mM KCl, 25 mM potassium phosphate, 10 mM Mg2+; pH 6.2; RNA concentration free in fit, binding-competent fraction 70%
[15] = system: Zsw81 (RNA, riboswitch) GGAUACAGGACUGGCGGAUUAGUGGAAGCAACCACGUGGACUGUAUCCGAAGAAAAGCCGACCGCCUGGGCAAAAAUUAG; assay: 1H NMR titration, U42 imino intensity; conditions: 50 mM KCl, 25 mM potassium phosphate, 10 mM Mg2+; pH 6.2; RNA concentration free in fit, binding-competent fraction 43%

dissociation constant [1]: 0.57 µM | dissociation constant [2]: 0.54 µM | binding [3]: no | binding [4]: no | binding [5]: yes | binding [6]: no | binding [7]: no | binding [8]: no | binding [9]: no | binding [10]: no | binding [11]: no | binding [12]: no | binding [13]: weak | dissociation constant [14]: 2.78 µM | dissociation constant [15]: 2.58 µM
SMILES: NC(=O)c1ncn([C@@H]2O[C@H](COP(=O)(O)O)[C@@H](O)[C@H]2O)c1N
